Source: PubChem BioAssay (NCI)
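Dose response: 5 concentrations. Exposure: 48 h. Format: 96-well plates. Endpoint: linear interpolation; highest concentration if not reached. GI50 = concentration required for 50% inhibition of growth. TGI: concentration producing complete growth inhibition.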

Experiments:
Assay in all cases: growth of human tumour cells (NCI), 48 h
HCT-15 colon = system: HCT-15 colon
HOP-62 NSCLC = system: HOP-62 NSCLC
NCI-H522 lung = system: NCI-H522 lung
MOLT-4 leukemia = system: MOLT-4 leukemia
RPMI-8226 leukemia = system: RPMI-8226 leukemia
EKVX NSCLC = system: EKVX NSCLC
NCI-H226 lung = system: NCI-H226 lung
T-47D breast = system: T-47D breast
TK-10 renal = system: TK-10 renal
ACHN renal = system: ACHN renal
OVCAR-8 ovarian = system: OVCAR-8 ovarian
DU-145 prostate = system: DU-145 prostate
786-0 renal = system: 786-0 renal
K-562 leukemia = system: K-562 leukemia
IGROV1 ovarian = system: IGROV1 ovarian
SK-MEL-5 melanoma = system: SK-MEL-5 melanoma
HCT-116 colon = system: HCT-116 colon
HT29 colon = system: HT29 colon
SN12C renal = system: SN12C renal
HOP-92 NSCLC = system: HOP-92 NSCLC
SK-OV-3 ovarian = system: SK-OV-3 ovarian
KM12 colon = system: KM12 colon
BT-549 breast = system: BT-549 breast
SNB-75 CNS = system: SNB-75 CNS
CAKI-1 renal = system: CAKI-1 renal
MDA-MB-231 breast = system: MDA-MB-231 breast
A549 NSCLC = system: A549 NSCLC
SNB-19 CNS = system: SNB-19 CNS
NCI/ADR-RES ovarian = system: NCI/ADR-RES ovarian
UO-31 renal = system: UO-31 renal
HCC-2998 colon = system: HCC-2998 colon
SR leukemia = system: SR leukemia
SF-295 CNS = system: SF-295 CNS
OVCAR-5 ovarian = system: OVCAR-5 ovarian
HS 578T breast = system: HS 578T breast
UACC-62 melanoma = system: UACC-62 melanoma
SF-268 CNS = system: SF-268 CNS
U251 CNS = system: U251 CNS
CCRF-CEM leukemia = system: CCRF-CEM leukemia
NCI-H23 lung = system: NCI-H23 lung
UACC-257 melanoma = system: UACC-257 melanoma
A498 renal = system: A498 renal
OVCAR-4 ovarian = system: OVCAR-4 ovarian
HL-60(TB) leukemia = system: HL-60(TB) leukemia
SF-539 CNS = system: SF-539 CNS
NCI-H460 lung = system: NCI-H460 lung
MCF7 breast = system: MCF7 breast
PC-3 prostate = system: PC-3 prostate
RXF 393 renal = system: RXF 393 renal
LOX IMVI melanoma = system: LOX IMVI melanoma
SK-MEL-28 melanoma = system: SK-MEL-28 melanoma
SW-620 colon = system: SW-620 colon

COc1ccc(Cn2cc3c(c2-c2cc(OC)c(OC)c(OC)c2)CCCc2cnoc2-3)cc1
GI50 (HCT-15 colon): 478 nM | TGI (HCT-15 colon): > 100000 nM | GI50 (HOP-62 NSCLC): 2220 nM | TGI (HOP-62 NSCLC): > 100000 nM | GI50 (NCI-H522 lung): 975 nM | TGI (NCI-H522 lung): 6900 nM | GI50 (MOLT-4 leukemia): 802 nM | TGI (MOLT-4 leukemia): > 100000 nM | GI50 (RPMI-8226 leukemia): 1560 nM | TGI (RPMI-8226 leukemia): > 100000 nM | GI50 (EKVX NSCLC): 3000 nM | TGI (EKVX NSCLC): > 100000 nM | GI50 (NCI-H226 lung): 1990 nM | TGI (NCI-H226 lung): > 100000 nM | GI50 (T-47D breast): 1850 nM | TGI (T-47D breast): > 100000 nM | GI50 (TK-10 renal): > 100000 nM | TGI (TK-10 renal): > 100000 nM | GI50 (ACHN renal): 900 nM | TGI (ACHN renal): > 100000 nM | GI50 (OVCAR-8 ovarian): 4300 nM | TGI (OVCAR-8 ovarian): > 100000 nM | GI50 (DU-145 prostate): 4110 nM | TGI (DU-145 prostate): > 100000 nM | GI50 (786-0 renal): 669 nM | TGI (786-0 renal): > 100000 nM | GI50 (K-562 leukemia): 422 nM | TGI (K-562 leukemia): > 100000 nM | GI50 (IGROV1 ovarian): 562 nM | TGI (IGROV1 ovarian): > 100000 nM | GI50 (SK-MEL-5 melanoma): 2000 nM | TGI (SK-MEL-5 melanoma): > 100000 nM | GI50 (HCT-116 colon): 391 nM | TGI (HCT-116 colon): > 100000 nM | GI50 (HT29 colon): 1130 nM | TGI (HT29 colon): > 100000 nM | GI50 (SN12C renal): 4600 nM | TGI (SN12C renal): > 100000 nM | GI50 (HOP-92 NSCLC): 1270 nM | TGI (HOP-92 NSCLC): > 100000 nM | GI50 (SK-OV-3 ovarian): 4180 nM | TGI (SK-OV-3 ovarian): > 100000 nM | GI50 (KM12 colon): 692 nM | TGI (KM12 colon): > 100000 nM | GI50 (BT-549 breast): 482 nM | TGI (BT-549 breast): > 100000 nM | GI50 (SNB-75 CNS): 869 nM | TGI (SNB-75 CNS): 4750 nM | GI50 (CAKI-1 renal): 490 nM | TGI (CAKI-1 renal): > 100000 nM | GI50 (MDA-MB-231 breast): 2540 nM | TGI (MDA-MB-231 breast): > 100000 nM | GI50 (A549 NSCLC): 2340 nM | TGI (A549 NSCLC): > 100000 nM | GI50 (SNB-19 CNS): 1530 nM | TGI (SNB-19 CNS): > 100000 nM | GI50 (NCI/ADR-RES ovarian): 544 nM | TGI (NCI/ADR-RES ovarian): > 100000 nM | GI50 (UO-31 renal): 924 nM | TGI (UO-31 renal): > 100000 nM | GI50 (HCC-2998 colon): 1610 nM | TGI (HCC-2998 colon): 10600 nM | GI50 (SR leukemia): 359 nM | TGI (SR leukemia): > 100000 nM | GI50 (SF-295 CNS): 511 nM | TGI (SF-295 CNS): > 100000 nM | GI50 (OVCAR-5 ovarian): 3720 nM | TGI (OVCAR-5 ovarian): > 100000 nM | GI50 (HS 578T breast): 1540 nM | TGI (HS 578T breast): > 100000 nM | GI50 (UACC-62 melanoma): 906 nM | TGI (UACC-62 melanoma): > 100000 nM | GI50 (SF-268 CNS): 4720 nM | TGI (SF-268 CNS): > 100000 nM | GI50 (U251 CNS): 4470 nM | TGI (U251 CNS): > 100000 nM | GI50 (CCRF-CEM leukemia): 415 nM | TGI (CCRF-CEM leukemia): > 100000 nM | GI50 (NCI-H23 lung): 2620 nM | TGI (NCI-H23 lung): > 100000 nM | GI50 (UACC-257 melanoma): > 100000 nM | TGI (UACC-257 melanoma): > 100000 nM | GI50 (A498 renal): 696 nM | TGI (A498 renal): 7110 nM | GI50 (OVCAR-4 ovarian): 4970 nM | TGI (OVCAR-4 ovarian): > 100000 nM | GI50 (HL-60(TB) leukemia): 350 nM | TGI (HL-60(TB) leukemia): > 100000 nM | GI50 (SF-539 CNS): 700 nM | TGI (SF-539 CNS): 5170 nM | GI50 (NCI-H460 lung): 500 nM | TGI (NCI-H460 lung): > 100000 nM | GI50 (MCF7 breast): 437 nM | TGI (MCF7 breast): > 100000 nM | GI50 (PC-3 prostate): 849 nM | TGI (PC-3 prostate): > 100000 nM | GI50 (RXF 393 renal): 658 nM | TGI (RXF 393 renal): 5040 nM | GI50 (LOX IMVI melanoma): 997 nM | TGI (LOX IMVI melanoma): > 100000 nM | GI50 (SK-MEL-28 melanoma): > 100000 nM | TGI (SK-MEL-28 melanoma): > 100000 nM | GI50 (SW-620 colon): 474 nM | TGI (SW-620 colon): > 100000 nM
